Laboratory results taken from US9180155B2, “Compositions from Nigella sativa” (Bio Nexus, Ltd, priority 2013, dated 2015).

Tests used:
Caco-2 monolayers = assay: LPS/H2O2-mediated loss of TEER in Caco-2 monolayers; format: cell-based, human; conditions: LPS/H2O2 control = 100, 3 h; μg TQ equivalents/mL: Thymoquinone 5.0, NS8 0.11, NS9 0.99, NS10 0.012, NSSpent#2 0.0005; NSSpent#1 5 μg/mL; listed as TQ
Excerpt: The protocol for growing and differentiation the human Caco-2 colon andenocarcinoma cells was a modification of Protocol 3 as described by Yamashita et al. [[…]., and Furuyama, Y. 2002) New and better protocols for a short-term Caco-2 cell culture system, J Pharm Sci 91, 669-679]. Caco-2 Human Colon Adenocarcinoma cells were obtained from ATCC (Rockville, Md.; catalog #HTB-37) and maintained in a growth media: DMEM (Dulbecco's Modified Eagles Medium 1×) containing L-glutamine, glucose; Cellgro catalog #35-010CV with the following additions: (1) Penicillin (5,000 IU/mL)/Streptomycin (5,000 μg/mL) Cellgro catalog #30-001C1, (2) 10% FBS-Fetal Bovine Serum, Characterized; Hyclone catalog #SH30071.3, and (3) 1% NEAA-Non Essential Amino Acids; Cellgro catalog #25-025-CI; cells were cultured at 37 C in a humidified air-5% CO2 atmosphere in T175 flasks. BIOCOAT^R HTS Caco-2 Assay System kits (Becton Dickinson, N.J.; catalog #354801) consisting of 24-well fibrillar collagen coated inserts and feeder trays were used in all experiments and plated as follows. Media was removed from the T175 flasks and cells were washed with 10 mLs PBS (phosphate buffered saline 1× without Ca^++, without Mg^++; Cellgro #25-053-CI). […]

C2C12 myocytes = assay: Lipolysis (glycerol assay) in C2C12 myocytes; format: cell-based, murine; conditions: 5 or 2.5 μg/mL (FIG. 10)
Description: Culture and treatment of 3T3-L1 adipocytes and C2C12 myocytes was as described in Example 5. Concentrations of the forskolin positive control and test materials are listed in FIG. 9 for adipocytes and FIG. 10 for myocytes. Free fatty acid release from 3T3-L1 adipocytes or C2C12 myocytes was quantified by measuring glycerol secretion into the medium. Glycerol was measured spectrophotometrically using the Free Glycerol Determination Kit ([…], Sigma) and an EL 312e Microplate BIO-KINETICS spectrophotometer (BioTek, Winooski, Vt.). Glycerol release from adipocytes and myocytes was expressed, respectively, as the percent increase in free fatty acid secretion (FIG. 9) and relative glycerol content (glycerol index FIG. 10) ±95% confidence intervals of eight observations for one of three representative experiments.

[1] = test system: prostate specific antigen (PSA) secretion by LNCaP prostate cells; assay: PSA secretion from LNCaP prostate cells; format: cell-based, Human; conditions: 5 to 100 μg/mL (Spent#1, NSSpent#2: 250 and 500)
Excerpt: PSA was quantified from the cell culture supernatant fluid using the Quantikine Human KLK3/PSA Immunoassay kit (R&D Systems, Inc., Minneapolis, Minn.). All other materials used in this example were purchased from Sigma (St. Louis, Mo.) or otherwise noted and were of the highest purity commercially available. The N. sativa samples used in this study were those commercial-scale extracts described in Example 1. The LNCaP prostate cell line, which produces PSA, was used to study the effects of commercial-scale N. sativa scale extracts of Example 1 and pure TQ on the secretion of PSA. LNCaP cells were purchased from the American Type Culture Collection (ATCC, Manassas, Va.) and sub-cultured according to instructions supplied by ATCC. Prior to experiments, cells were cultured in DMEM containing 10% FBS-HI added 50 units penicillin/ml and 50 μg streptomycin/ml, and maintained in log phase prior to experimental setup. Cells were grown in a 5% CO2 humidified incubator at 37° C. Components of medium included: (1) 10% FBS/DMEM (Fetal Bovine Serum/Dulbecco's Modified Eagle's Medium) containing 4.5 g glucose/L; (2) 50 U/ml penicillin; and (3) 50 μg/ml streptomycin. Growth medium was made by adding 50 ml of heat inactivated FBS and 5 ml of penicillin/streptomycin to 500 ml DMEM. This medium was stored at 4° C. Before use, the medium was warmed to 37° C. in a water bath. LNCaP cells were seeded at an initial density of 6×10^4 cells/cm^2 in 96-well plates. For two days, the cells were allowed grow to reach confluence. On day three post seeding, cells were treated with TQ, NS8, NS9, NS10, Spent#1, and NSSpent#2 at the concentrations listed in FIGS. 5, 6 and 7. Twenty-four hours later, the supernatant media were sampled and assayed for PSA.

For `CC1=CC(=O)C(C(C)C)=CC1=O` [Thymoquinone, thymoquinone], the “Relative Loss of TEER” value (Caco-2 monolayers) was “no effect”, the “free fatty acid release in myocytes” value (C2C12 myocytes) was “induced free fatty acid release” and the “Effect on PSA Secretion over 24 Hours” value ([1]; at 5 and 10 µg/mL) was “Decreased PSA at 5 and 10 μg/mL, dramatic”. For the same compound, the “Effect on PSA Secretion over 24 Hours” value ([1]; at 50 and 100 µg/mL) was “increase in PSA secretion at 50 and 100 μg/mL” and the “Effect on PSA Secretion over 24 Hours” value ([1]; listed as TQ) was “decreased PSA only at the two lowest doses tested”.
